Measured values published in US8367687B2, “Pyrazole derivatives” (Novartis AG, priority 2007, dated 2013).
Read-outs that look alike come from different tables or passages of the source.

Columns and labels:
CDK4 = CDK4 (Homo sapiens, UniProt P11802); test: CDK4 HTRF; format: biochemical
CDK2 cyA = CDK2 cyA (Homo sapiens, UniProt P24941); test: CDK2 cyA IMAP; format: biochemical
p-pRb/S780 = p-pRb/S780 ELISA Cellular Assay (CDK4 ELISA assay); format: cell-based; details: cells treated for 24 hrs
Method in brief: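 Cells treated 24 h at 37 °C with a 7-point compound series, final 10 uM to 0.002 uM. Lysates captured on total-pRb antibody-coated plates, probed with anti-pRb S780 and HRP secondary; TMB read as absorbance at 450 nm.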

hCDK1/B = hCDK1/B (Homo sapiens, UniProt P06493); test: hCDK1/B; format: biochemical
[1] = Table 1, read-out: CDK2 cyA IMAP
[2] = Table 1, read-out: CDK4 ELISA assay IC50
[3] = Table 2, read-out: CDK4 HTRF/ IC50
[4] = Table 2, read-out: CDK2cyA IMAP/ IC50
[5] = Table 2, read-out: p_pRb Cap EL/ IC50_ppRbinh

Sequence of CDK4 (P11802 whole entry): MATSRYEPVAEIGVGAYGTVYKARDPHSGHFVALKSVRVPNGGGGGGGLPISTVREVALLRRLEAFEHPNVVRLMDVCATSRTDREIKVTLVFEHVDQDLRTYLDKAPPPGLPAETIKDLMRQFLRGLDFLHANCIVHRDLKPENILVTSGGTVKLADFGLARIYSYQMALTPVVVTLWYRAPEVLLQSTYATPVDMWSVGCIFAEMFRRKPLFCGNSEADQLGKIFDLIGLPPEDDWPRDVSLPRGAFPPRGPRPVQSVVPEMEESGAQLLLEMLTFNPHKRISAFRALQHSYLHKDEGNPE
Sequence of CDK4 (P24385 whole entry partner): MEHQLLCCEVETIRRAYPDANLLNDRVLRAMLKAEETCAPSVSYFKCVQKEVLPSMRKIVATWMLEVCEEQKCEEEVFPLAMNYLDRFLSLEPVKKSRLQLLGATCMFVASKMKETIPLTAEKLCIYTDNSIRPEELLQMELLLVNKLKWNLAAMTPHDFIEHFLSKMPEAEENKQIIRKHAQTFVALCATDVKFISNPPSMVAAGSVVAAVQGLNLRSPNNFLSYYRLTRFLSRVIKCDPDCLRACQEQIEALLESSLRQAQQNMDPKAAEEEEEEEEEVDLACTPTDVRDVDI
Sequence of hCDK1/B (P06493 whole entry): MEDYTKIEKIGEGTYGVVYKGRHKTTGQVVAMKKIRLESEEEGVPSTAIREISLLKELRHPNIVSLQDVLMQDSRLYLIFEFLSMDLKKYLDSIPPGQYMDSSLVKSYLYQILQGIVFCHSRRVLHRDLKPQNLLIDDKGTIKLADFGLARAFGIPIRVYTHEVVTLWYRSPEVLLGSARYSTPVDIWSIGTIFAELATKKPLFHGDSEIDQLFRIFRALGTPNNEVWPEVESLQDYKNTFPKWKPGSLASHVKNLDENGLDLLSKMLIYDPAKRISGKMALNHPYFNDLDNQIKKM
Sequence of hCDK1/B (P14635 whole entry partner): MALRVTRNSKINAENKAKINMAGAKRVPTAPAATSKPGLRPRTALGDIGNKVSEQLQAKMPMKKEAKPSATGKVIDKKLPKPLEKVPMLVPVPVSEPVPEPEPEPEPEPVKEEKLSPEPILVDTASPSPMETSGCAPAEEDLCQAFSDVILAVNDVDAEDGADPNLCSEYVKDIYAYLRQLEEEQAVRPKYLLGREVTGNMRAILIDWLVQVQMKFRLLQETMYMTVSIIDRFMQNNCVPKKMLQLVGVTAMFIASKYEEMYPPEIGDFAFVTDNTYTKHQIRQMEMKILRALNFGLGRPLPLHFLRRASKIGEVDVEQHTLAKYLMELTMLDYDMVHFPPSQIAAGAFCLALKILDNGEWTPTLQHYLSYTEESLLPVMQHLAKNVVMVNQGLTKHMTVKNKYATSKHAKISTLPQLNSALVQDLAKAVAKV

IC50 (CDK4; Table 1, read-out: CDK4 HTRF) [µM] | IC50 (CDK2 cyA; [1]) [µM] | IC50 (p-pRb/S780; [2]) [µM] | IC50 (hCDK1/B; Table 1) [µM] | IC50 (CDK4; [3]) [µM] | IC50 (CDK2 cyA; [4]) [µM] | IC50 (p-pRb/S780; [5]) [µM] | IC50 (hCDK1/B; Table 2) [µM] | SMILES
< 10 | < 5 | < 5 | < 5 | – | – | – | – | Cc1ccc(CNc2cc(-c3cn[nH]c3C3CCCC3)ccn2)cc1 [Example 64]
< 5 | ≥ 15 | < 15 | ≥ 15 | – | – | – | – | CC(C)c1[nH]ncc1-c1ccnc(NCCCNC2CCCCC2)c1 [Example 51]
< 10 | ≥ 15 | < 15 | ≥ 15 | – | – | – | – | CC(C)c1[nH]ncc1-c1ccnc(NCCCN2CCOCC2)c1 [Example 36]
– | – | – | – | < 5 | ≥ 15 | < 15 | < 10 | CC(C)c1n[nH]cc1-c1ccnc(N[C@H]2CCCc3ccccc32)n1 [Example 178]
– | – | – | – | < 0.05 | < 0.05 | < 1 | < 0.05 | CC(C)c1n[nH]cc1-c1ccnc(NC2CCCCC2)n1 [Example 166]
– | – | – | – | < 0.05 | < 1 | < 5 | < 5 | CC(C)c1n[nH]cc1-c1ccnc(NC2CCCc3ccccc32)n1 (centres unmarked) [Example 169]
< 5 | < 10 | < 15 | < 10 | – | – | – | – | Cc1ccccc1CNc1cc(-c2cn[nH]c2C2CCCCCC2)ccn1 [Example 66]
– | – | – | – | < 0.05 | < 1 | < 5 | < 0.5 | CC(C)c1n[nH]cc1-c1ccnc(NC2CCNCC2)n1 [Example 141]
